Experimental data: ChEMBL document CHEMBL1133418, “Synthesis and biological evaluation of novel 9-functional heterocyclic coupled 7-deoxy-9-dihydropaclitaxel analogue” (2000)

How the values were obtained:
Format in all cases: functional
WiDr [1] = experiment: Cytotoxicity ratio was evaluated against human tumor cell line WIDR (Human colon cancer) after 72 hr incubation relative to paclitaxel (ED50 = […])
ECa-109 cell line [2] = experiment: Cytotoxicity ratio was evaluated against tumor cell line ECa-109 (Human esophagus cancer) after 72 hr incubation relative to paclitaxel (ED50 = […])
[3] = molecular target: Tubulin alpha chain (Sus scrofa) (UniProt P02550); experiment: Effective dose which causes polymerization of 50% of the tubulin present at 37 degree C in Microtubule assembly assay
Sequence of Tubulin alpha chain (Sus scrofa) (P02550 whole entry, looked up): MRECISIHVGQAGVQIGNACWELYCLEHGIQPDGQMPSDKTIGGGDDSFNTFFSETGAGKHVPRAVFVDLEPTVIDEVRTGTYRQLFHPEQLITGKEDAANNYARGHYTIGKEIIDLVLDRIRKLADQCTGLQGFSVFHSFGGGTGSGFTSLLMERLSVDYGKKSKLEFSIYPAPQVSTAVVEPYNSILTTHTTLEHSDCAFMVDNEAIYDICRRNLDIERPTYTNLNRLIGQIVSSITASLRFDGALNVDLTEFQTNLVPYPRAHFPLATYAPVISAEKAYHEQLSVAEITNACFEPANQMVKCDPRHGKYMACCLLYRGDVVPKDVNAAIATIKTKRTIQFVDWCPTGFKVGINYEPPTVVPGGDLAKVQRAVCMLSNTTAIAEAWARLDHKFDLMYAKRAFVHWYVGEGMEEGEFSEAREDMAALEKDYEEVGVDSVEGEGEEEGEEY

MCF7 [4] = experiment: Cytotoxicity ratio was evaluated against human tumor cell line MCF-7 (Human breast cancer) after 72 hr incubation relative to paclitaxel (ED50 = […])
SK-OV-3 [5] = experiment: Cytotoxicity ratio was evaluated against human tumor cell line SKOV3 (Human ovarian cancer) after 72 hr incubation relative to paclitaxel (ED50 = […])
WiDr [6] = experiment: Cytotoxicity ratio was evaluated against human tumor cell line WIDR (Human colon cancer) after 72 hr incubation
SK-OV-3 [7] = experiment: Cytotoxicity ratio was evaluated against human tumor cell line SKOV3 (Human ovarian cancer) after 72 hr incubation
ECa-109 cell line [8] = experiment: Cytotoxicity ratio was evaluated against tumor cell line ECa-109 (Human esophagus cancer) after 72 hr incubation
MCF7 [9] = experiment: Cytotoxicity ratio was evaluated against human tumor cell line MCF-7 (Human breast cancer) after 72 h incubation

SMILES	Ratio (WiDr [1])	Ratio (ECa-109 cell line [2])	ED50 [3] [nM]	Ratio (MCF7 [4])	Ratio (SK-OV-3 [5])	Ratio (WiDr [6])	Ratio (SK-OV-3 [7])	Ratio (ECa-109 cell line [8])	Ratio (MCF7 [9])
CC(=O)O[C@@H]1C2=C(C)[C@@H](OC(=O)[C@H](O)[C@@H](NC(=O)c3ccccc3)c3ccccc3)C[C@@](O)([C@@H](OC(=O)c3ccccc3)C3[C@@](C)(CC[C@H]4OC[C@@]34OC(C)=O)[C@H]1OC(=O)CCC(=O)OC[C@H]1O[C@@H](n3cc(Br)c(=O)[nH]c3=O)[C@H](O)[C@@H]1O)C2(C)C (stereo not given in full)	3.87	0.16	> 15000	2.64	4.06	–	–	–	–
CC(=O)O[C@@H]1C2=C(C)[C@@H](OC(=O)[C@H](O)[C@@H](NC(=O)c3ccccc3)c3ccccc3)C[C@@](O)([C@@H](OC(=O)c3ccccc3)C3[C@@](C)(CC[C@H]4OC[C@@]34OC(C)=O)[C@H]1OC(=O)CCC(=O)OC[C@H]1O[C@@H](n3cc(C)c(=O)[nH]c3=O)C[C@@H]1N=[N+]=[N-])C2(C)C (stereo not given in full)	2.62	3.54	> 20000	3.13	3.41	–	–	–	–
CC(=O)O[C@@H]1C2=C(C)[C@@H](OC(=O)[C@H](O)[C@@H](NC(=O)c3ccccc3)c3ccccc3)C[C@@](O)([C@@H](OC(=O)c3ccccc3)C3[C@@](C)(CC[C@H]4OC[C@@]34OC(C)=O)[C@H]1OC(=O)CCC(=O)OC[C@H]1O[C@@H](n3ccc(NC(=O)c4ccccc4)nc3=O)C[C@@H]1O)C2(C)C (stereo not given in full)	2.43	1.03	900	1.63	1.98	–	–	–	–
CC(=O)O[C@@H]1C2=C(C)[C@@H](OC(=O)[C@H](O)[C@@H](NC(=O)c3ccccc3)c3ccccc3)C[C@@](O)([C@@H](OC(=O)c3ccccc3)C3[C@@](C)(CC[C@H]4OC[C@@]34OC(C)=O)[C@H]1OC(=O)CCC(=O)OC[C@H]1O[C@@H](n3cnc4c(Cl)ncnc43)[C@H](O)[C@@H]1O)C2(C)C (stereo not given in full)	2.16	0.18	> 15000	3.68	2.24	–	–	–	–
CC(=O)O[C@H]1C(=O)[C@@]2(C)[C@H]([C@H](OC(=O)c3ccccc3)[C@]3(O)C[C@H](OC(=O)[C@H](O)[C@@H](NC(=O)c4ccccc4)c4ccccc4)C(C)=C1C3(C)C)[C@]1(OC(C)=O)CO[C@@H]1C[C@@H]2O [PACLITAXEL]	–	–	400	–	–	1	1	1	1
